In patent US20210255193A1, “LYSINE REACTIVE PROBES AND USES THEREOF” (The Scripps Research Institute, priority 2017, published 2021):

Columns and labels:
Assay in all cases: competitive isoTOP-ABPP
Type in all cases: binding
[1] = molecular target: T1, PNPO Pyridoxine-5-phosphate oxidase (Homo sapiens, UniProt Q9NVS9); conditions: for isoTOP-ABPP reactivity ratio at lysine Q9NVS9_K100 / isoTOP-ABPP ratio (R) at liganded lysine Q9NVS9_K100 / R value (DMSO/fragment) for probe 1 labeling: 50 uM, in vitro; for isoTOP-ABPP reactivity ratio at lysine Q9NVS9_K100 / R value (DMSO/fragment) for probe 1 labeling: 231 sol; for isoTOP-ABPP ratio (R) at liganded lysine Q9NVS9_K100: sol, 231; for R value (DMSO/fragment) for probe 1 labeling: Q9NVS9_K100
T1 construct: endogenous in cells; host or cells: MDA-MB-231 (soluble fraction of lysate)
T1 sequence (Q9NVS9 1-261): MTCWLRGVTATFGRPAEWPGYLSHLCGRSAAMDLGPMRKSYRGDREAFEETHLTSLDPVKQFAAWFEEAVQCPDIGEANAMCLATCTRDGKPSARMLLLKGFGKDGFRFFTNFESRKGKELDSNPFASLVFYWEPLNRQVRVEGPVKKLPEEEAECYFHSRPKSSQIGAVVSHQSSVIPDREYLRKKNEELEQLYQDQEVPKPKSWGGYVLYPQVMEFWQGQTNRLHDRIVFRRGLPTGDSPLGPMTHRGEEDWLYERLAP
In short: (§1)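 Fragments at 50 μM (activated esters) or 100 μM (guanidinylating agents) were incubated with 0.5 ml lysate before probe labeling. After 0.1 mM STP-alkyne for 1 h, samples were clicked to isotopically distinct TEV tags, and R taken as DMSO-over-compound MS1 peak-area ratio.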

[2] = molecular target: T2, DCTN2 Dynactin subunit 2 (Homo sapiens, UniProt Q13561); conditions: for isoTOP-ABPP reactivity ratio at lysine Q13561_K175 / isoTOP-ABPP ratio (R) at liganded lysine Q13561_K175 / R value (DMSO/fragment) for probe 1 labeling: 50 uM, in vitro; for isoTOP-ABPP reactivity ratio at lysine Q13561_K175 / R value (DMSO/fragment) for probe 1 labeling: 231 sol; for isoTOP-ABPP ratio (R) at liganded lysine Q13561_K175: sol, 231; for R value (DMSO/fragment) for probe 1 labeling: Q13561_K175
T2 construct: isoTOP-ABPP experiments performed in cell lysates (in vitro); endogenous in cells; host or cells: soluble proteome of human cancer cell lines (MDA-MB-231, Ramos, Jurkat)
T2 sequence (Q13561 whole entry, the tested form may be a part): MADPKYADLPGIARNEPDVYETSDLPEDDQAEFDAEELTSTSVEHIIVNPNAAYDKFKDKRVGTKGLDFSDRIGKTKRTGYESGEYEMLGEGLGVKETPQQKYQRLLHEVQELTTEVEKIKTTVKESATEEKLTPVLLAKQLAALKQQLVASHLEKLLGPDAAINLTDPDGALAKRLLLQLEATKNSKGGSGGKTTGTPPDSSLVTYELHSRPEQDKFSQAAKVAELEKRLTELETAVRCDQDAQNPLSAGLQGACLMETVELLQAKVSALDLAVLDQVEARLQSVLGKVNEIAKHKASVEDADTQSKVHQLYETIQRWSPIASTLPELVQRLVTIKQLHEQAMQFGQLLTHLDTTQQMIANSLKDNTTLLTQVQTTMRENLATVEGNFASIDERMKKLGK
In short: as §1

[3] = molecular target: T3, NPEPPS Puromycin-sensitive aminopeptidase (Homo sapiens, UniProt P55786); conditions: for isoTOP-ABPP reactivity ratio at lysine P55786_K712 / isoTOP-ABPP ratio (R) at liganded lysine P55786_K712 / R value (DMSO/fragment) for probe 1 labeling: 50 uM, in vitro; for isoTOP-ABPP reactivity ratio at lysine P55786_K712 / R value (DMSO/fragment) for probe 1 labeling: 231 sol; for isoTOP-ABPP ratio (R) at liganded lysine P55786_K712: sol, 231; for R value (DMSO/fragment) for probe 1 labeling: P55786_K712
T3 construct: isoTOP-ABPP experiments performed in cell lysates (in vitro); endogenous in cells; host or cells: soluble proteome of human cancer cell lines (MDA-MB-231, Ramos, Jurkat)
T3 sequence (P55786 whole entry, the tested form may be a part): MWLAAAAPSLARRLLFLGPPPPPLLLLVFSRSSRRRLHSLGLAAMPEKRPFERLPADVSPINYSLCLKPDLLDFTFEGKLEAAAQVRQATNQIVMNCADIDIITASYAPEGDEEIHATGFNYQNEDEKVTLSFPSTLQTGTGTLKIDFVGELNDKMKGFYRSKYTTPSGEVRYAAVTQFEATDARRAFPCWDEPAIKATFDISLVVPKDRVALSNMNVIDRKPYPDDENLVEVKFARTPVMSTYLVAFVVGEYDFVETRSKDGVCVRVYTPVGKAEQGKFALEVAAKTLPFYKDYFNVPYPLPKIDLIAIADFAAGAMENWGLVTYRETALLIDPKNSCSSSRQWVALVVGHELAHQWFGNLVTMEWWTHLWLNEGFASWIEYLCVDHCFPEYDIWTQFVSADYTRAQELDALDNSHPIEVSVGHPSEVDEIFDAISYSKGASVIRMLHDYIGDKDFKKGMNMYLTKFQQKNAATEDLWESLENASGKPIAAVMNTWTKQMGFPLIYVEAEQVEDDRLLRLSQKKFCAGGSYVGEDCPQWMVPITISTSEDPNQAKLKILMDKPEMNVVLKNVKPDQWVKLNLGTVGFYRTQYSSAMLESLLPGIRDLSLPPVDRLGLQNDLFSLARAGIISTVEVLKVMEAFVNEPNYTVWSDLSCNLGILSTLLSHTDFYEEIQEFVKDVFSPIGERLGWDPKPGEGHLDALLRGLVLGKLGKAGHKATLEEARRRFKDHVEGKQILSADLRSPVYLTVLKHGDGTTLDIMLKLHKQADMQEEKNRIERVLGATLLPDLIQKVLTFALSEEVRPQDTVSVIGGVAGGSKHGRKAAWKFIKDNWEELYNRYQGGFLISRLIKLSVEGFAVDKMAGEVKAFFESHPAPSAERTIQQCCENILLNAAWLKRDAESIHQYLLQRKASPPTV
In short: as §1

[4] = molecular target: T4, MRPS24 28S ribosomal protein S24, mitochondrial (Homo sapiens, UniProt Q96EL2); conditions: for isoTOP-ABPP reactivity ratio at lysine Q96EL2_K94 / isoTOP-ABPP ratio (R) at liganded lysine Q96EL2_K94 / R value (DMSO/fragment) for probe 1 labeling: 50 uM, in vitro; for isoTOP-ABPP reactivity ratio at lysine Q96EL2_K94 / R value (DMSO/fragment) for probe 1 labeling: 231 sol; for isoTOP-ABPP ratio (R) at liganded lysine Q96EL2_K94: sol, 231; for R value (DMSO/fragment) for probe 1 labeling: Q96EL2_K94
T4 construct: isoTOP-ABPP experiments performed in cell lysates (in vitro); endogenous in cells; host or cells: soluble proteome of human cancer cell lines (MDA-MB-231; Ramos and Jurkat also prepared)
In short: as §1

[5] = molecular target: T5, POLR2L DNA-directed RNA polymerases I, II, and III subunit (Homo sapiens, UniProt P62875); conditions: for isoTOP-ABPP reactivity ratio at lysine P62875_K67 / isoTOP-ABPP ratio (R) at liganded lysine P62875_K67 / R value (DMSO/fragment) for probe 1 labeling: 50 uM, in vitro; for isoTOP-ABPP reactivity ratio at lysine P62875_K67 / R value (DMSO/fragment) for probe 1 labeling: 231 sol; for isoTOP-ABPP ratio (R) at liganded lysine P62875_K67: sol, 231; for R value (DMSO/fragment) for probe 1 labeling: P62875_K67
T5 construct: isoTOP-ABPP experiments performed in cell lysates (in vitro); endogenous in cells; host or cells: soluble proteome of human cancer cell lines (MDA-MB-231, Ramos, Jurkat)
In short: as §1

SMILES: O=C(CN1C(=O)c2ccccc2C1=O)Oc1c(F)c(F)c(F)c(F)c1F [fragment 27, Pentafluorophenyl 2-(1,3-dioxoisoindolin-2-yl)acetate]
- isoTOP-ABPP reactivity ratio at lysine Q9NVS9_K100 [1]: 1.0
- isoTOP-ABPP reactivity ratio at lysine Q13561_K175 [2]: 1.2
- isoTOP-ABPP reactivity ratio at lysine P55786_K712 [3]: 1.2
- isoTOP-ABPP reactivity ratio at lysine Q96EL2_K94 [4]: 2.0
- isoTOP-ABPP reactivity ratio at lysine P62875_K67 [5]: 1.0

SMILES: O=C(Oc1ccc([N+](=O)[O-])cc1[N+](=O)[O-])c1cc(C(F)(F)F)cc(C(F)(F)F)c1 [fragment 31, 2,4-Dinitrophenyl 3,5-bis(trifluoromethyl)benzoate]
- isoTOP-ABPP reactivity ratio at lysine Q9NVS9_K100 [1]: 1.0
- isoTOP-ABPP reactivity ratio at lysine Q13561_K175 [2]: 1.0
- isoTOP-ABPP reactivity ratio at lysine P55786_K712 [3]: 1.1
- isoTOP-ABPP reactivity ratio at lysine Q96EL2_K94 [4]: 1.6
- isoTOP-ABPP reactivity ratio at lysine P62875_K67 [5]: 0.9

SMILES: O=C(Oc1c(F)c(F)cc(F)c1F)c1cc(C(F)(F)F)cc(C(F)(F)F)c1 [fragment 48, 2,3,5,6-Tetrafluorophenyl 3,5-bis(trifluoromethyl)benzoate]
- isoTOP-ABPP ratio, lysine Q9NVS9_K100 ([1]; 50 uM_231_sol_in vitro): 0.9
- isoTOP-ABPP ratio, lysine Q13561_K175 ([2]; 50 uM_231_sol_in vitro): 0.7
- isoTOP-ABPP ratio, lysine P55786_K712 ([3]; 50 uM_231_sol_in vitro): 1.0
- isoTOP-ABPP ratio, lysine Q96EL2_K94 ([4]; 50 uM_231_sol_in vitro): 1.0
- isoTOP-ABPP ratio, lysine P62875_K67 ([5]; 50 uM_231_sol_in vitro): 0.9

SMILES: CC(C)(C)OC(=O)N=C(NC(=O)OC(C)(C)C)n1cccn1 [fragment 50, reference compound]
- isoTOP-ABPP ratio, lysine Q9NVS9_K100 ([1]; 100 uM_231_sol_in vitro): 1.1
- isoTOP-ABPP ratio, lysine Q13561_K175 ([2]; 100 uM_231_sol_in vitro): 1.3
- isoTOP-ABPP ratio, lysine P55786_K712 ([3]; 100 uM_231_sol_in vitro): 1.6
- isoTOP-ABPP ratio, lysine Q96EL2_K94 ([4]; 100 uM_231_sol_in vitro): 2.2
- isoTOP-ABPP ratio, lysine P62875_K67 ([5]; 100 uM_231_sol_in vitro): 1.0

SMILES: N#Cc1ccc(C(=O)Oc2ccc([N+](=O)[O-])cc2[N+](=O)[O-])cc1 [fragment 44, 2,4-Dinitrophenyl 4-cyanobenzoate]
- isoTOP-ABPP ratio, lysine Q9NVS9_K100 ([1]; 50 uM_231_sol_in vitro): 0.9
- isoTOP-ABPP ratio, lysine Q13561_K175 ([2]; 50 uM_231_sol_in vitro): 0.8
- isoTOP-ABPP ratio, lysine P55786_K712 ([3]; 50 uM_231_sol_in vitro): 1.0
- isoTOP-ABPP ratio, lysine Q96EL2_K94 ([4]; 50 uM_231_sol_in vitro): 1.1
- isoTOP-ABPP ratio, lysine P62875_K67 ([5]; 50 uM_231_sol_in vitro): 1.0

SMILES: O=C(Oc1ccc([N+](=O)[O-])cc1[N+](=O)[O-])c1ccc(-c2ccccc2)cc1 [fragment 37, 2,4-Dinitrophenyl [1,1′-biphenyl]-4-carboxylate]
- isoTOP-ABPP ratio (R) at liganded lysine Q9NVS9_K100 [1]: 0.9
- isoTOP-ABPP ratio (R) at liganded lysine Q13561_K175 [2]: 0.9
- isoTOP-ABPP ratio (R) at liganded lysine P55786_K712 [3]: 0.9
- isoTOP-ABPP ratio (R) at liganded lysine Q96EL2_K94 [4]: 0.9
- isoTOP-ABPP ratio (R) at liganded lysine P62875_K67 [5]: 0.9

SMILES: O=C(Oc1c(F)c(F)c(F)c(F)c1F)C(c1ccccc1)c1ccccc1 [fragment 20, Pentafluorophenyl 2,2-diphenylacetate]
- R value (DMSO/fragment) for probe 1 labeling [1]: 0.9
- R value (DMSO/fragment) for probe 1 labeling [2]: 1.0
- R value (DMSO/fragment) for probe 1 labeling [3]: 0.9
- R value (DMSO/fragment) for probe 1 labeling [4]: 0.9
- R value (DMSO/fragment) for probe 1 labeling [5]: 0.9

SMILES: O=C(Oc1ccc([N+](=O)[O-])cc1[N+](=O)[O-])c1ccc2ccccc2n1 [fragment 35, 2,4-Dinitrophenyl quinoline-2-carboxylate]
- isoTOP-ABPP ratio (R) at liganded lysine Q9NVS9_K100 [1]: 0.9
- isoTOP-ABPP ratio (R) at liganded lysine Q13561_K175 [2]: 0.8
- isoTOP-ABPP ratio (R) at liganded lysine P55786_K712 [3]: 1.3
- isoTOP-ABPP ratio (R) at liganded lysine Q96EL2_K94 [4]: 1.3
- isoTOP-ABPP ratio (R) at liganded lysine P62875_K67 [5]: 0.9

SMILES: O=C(Oc1c(F)c(F)c(F)c(F)c1F)c1cc(C(F)(F)F)cc(C(F)(F)F)c1 [fragment 21, Pentafluorophenyl 3,5-bis(trifluoromethyl)benzoate]
- R value (DMSO/fragment) for probe 1 labeling [1]: 0.9
- R value (DMSO/fragment) for probe 1 labeling [2]: 0.9
- R value (DMSO/fragment) for probe 1 labeling [3]: 0.9
- R value (DMSO/fragment) for probe 1 labeling [4]: 0.8
- R value (DMSO/fragment) for probe 1 labeling [5]: 0.8

SMILES: CC(C)(C)OC(=O)NCCCC(=O)Oc1ccc([N+](=O)[O-])cc1[N+](=O)[O-] [fragment 41, 2,4-Dinitrophenyl 4-((tert-butoxycarbonyl)amino)butanoate]
- isoTOP-ABPP ratio (R) at liganded lysine Q9NVS9_K100 [1]: 1.0
- isoTOP-ABPP ratio (R) at liganded lysine Q13561_K175 [2]: 1.3
- isoTOP-ABPP ratio (R) at liganded lysine P55786_K712 [3]: 1.5
- isoTOP-ABPP ratio (R) at liganded lysine Q96EL2_K94 [4]: 1.3
- isoTOP-ABPP ratio (R) at liganded lysine P62875_K67 [5]: 2.6

SMILES: O=C(Oc1c(F)c(F)c(F)c(F)c1F)C1CCN(C(=O)OCc2ccccc2)CC1 [fragment 24, 1-Benzyl 4-(pentafluorophenyl) piperidine-1,4-dicarboxylate]
- isoTOP-ABPP reactivity ratio at lysine Q9NVS9_K100 [1]: 0.9
- isoTOP-ABPP reactivity ratio at lysine Q13561_K175 [2]: 1.3
- isoTOP-ABPP reactivity ratio at lysine P55786_K712 [3]: 1.0
- isoTOP-ABPP reactivity ratio at lysine Q96EL2_K94 [4]: 1.5
- isoTOP-ABPP reactivity ratio at lysine P62875_K67 [5]: 0.9

SMILES: O=C(Oc1c(F)c(F)c(F)c(F)c1F)c1ccc2ccccc2n1 [fragment 25, Pentafluorophenyl quinoline-2-carboxylate]
- isoTOP-ABPP reactivity ratio at lysine Q9NVS9_K100 [1]: 1.0
- isoTOP-ABPP reactivity ratio at lysine Q13561_K175 [2]: 1.1
- isoTOP-ABPP reactivity ratio at lysine P55786_K712 [3]: 1.1
- isoTOP-ABPP reactivity ratio at lysine Q96EL2_K94 [4]: 1.3
- isoTOP-ABPP reactivity ratio at lysine P62875_K67 [5]: 1.0

SMILES: COc1cc(CCC(=O)Oc2c(F)c(F)c(F)c(F)c2F)cc(OC)c1OC [fragment 23, Pentafluorophenyl 3-(3,4,5-trimethoxyphenyl)propanoate]
- R value (DMSO/fragment) for probe 1 labeling [1]: 1.8
- R value (DMSO/fragment) for probe 1 labeling [2]: 1.1
- R value (DMSO/fragment) for probe 1 labeling [3]: 1.2
- R value (DMSO/fragment) for probe 1 labeling [4]: 2.1
- R value (DMSO/fragment) for probe 1 labeling [5]: 1.1

SMILES: O=C(Oc1ccc([N+](=O)[O-])cc1[N+](=O)[O-])c1ccc(Oc2ccccc2)cc1 [fragment 39, 2,4-Dinitrophenyl 4-phenoxybenzoate]
- isoTOP-ABPP ratio (R) at liganded lysine Q9NVS9_K100 [1]: 0.9
- isoTOP-ABPP ratio (R) at liganded lysine Q13561_K175 [2]: 0.8
- isoTOP-ABPP ratio (R) at liganded lysine P55786_K712 [3]: 0.9
- isoTOP-ABPP ratio (R) at liganded lysine Q96EL2_K94 [4]: 1.2
- isoTOP-ABPP ratio (R) at liganded lysine P62875_K67 [5]: 0.9
